Measured values from patent US20220056043A1, “NITROGEN-CONTAINING FUSED CYCLIC COMPOUND, PREPARATION METHOD THEREFOR AND USE THEREOF” (SICHUAN KELUN-BIOTECH BIOPHARMACEUTICAL CO., LTD., priority 2019, published 2022).
Where a name gives a salt, the structure may show the parent alone.

Target: T1, hNLRP3 inflammasome (Homo sapiens, UniProt Q96P20)
T1 construct: endogenous in cells; host or cells: THP-1 cells, PMA-differentiated
Experiment: Agonistic effect on the expression of IL-1β in THP-1 cells after PMA-induced differentiation (HTRF)
Type: cell-based
Conditions: IL-1β level, PMA-differentiated THP-1 cells, 6 hours
Description: Experimental Example 1: Agonistic Effect of the Compound of the Invention on the Expression of IL-1β in THP-1 Cells after PMA-Induced Differentiation
In this test, a HTRF (homogeneous time-resolved fluorescence) detection method was used to test the effect of the compound of the invention on the level of downstream cytokine IL-1β of NLRP3 to evaluate the agonistic effect of the compound on hNLRP3 inflammasome or hNLRP3 inflammasome pathway at a cellular level.
Reagent: RPMI 1640 (Hyclone); heat-inactivated FBS (fetal bovine serum) (Gibco); PMA (phorbol myristal acetate) (Beyotime)
Kit: IL-1β assay kit (CISIO)
1) THP-1 cells in a logarithmic growth phase were seeded in a T75 culture flask at a density of 5×10^5 cells/well, and cultured in a cell incubator at 37° C., 5% CO2 for 24 hours, and then 1 μM PMA was used to induce THP-1 suspension cells to become adherent macrophages. The medium was RPMI 1640 containing 10% heat-inactivated FBS and 0.05 mM β-mercaptoethanol.
2) The cells were induced and cultured for 24 hours. Then the adherent cells were trypsinized and centrifuged at 1000 rpm for 5 min. The supernatant was removed, and the cells were resuspended to a density of 2×10^6 cells/mL in RPMI 1640 medium containing 2% heat-inactivated FBS. 50 μL/well of cell resuspension was taken and spread on a 96-well plate such that the number of cells in each well was 1×10^5.
3) An appropriate amount of 10 mM DMSO solution of the compound to be tested was taken and diluted to a concentration of 2× test concentration with RPMI 1640 medium containing 2% heat-inactivated FBS. 50 μL/well of the dilution was added to the cells in the 96-well plate, and mixed well. The plate was placed in a cell incubator at 37° C., 5% CO2 for 6 hours. The supernatant was collected, and the level of IL-1β was measured in accordance with the instructions of the IL-1β detection kit.
4) EC50 was fitted by the GraphPad software log(agonist) vs. response—Variable slope four-parameter method.

T1 sequence (Q96P20 whole entry): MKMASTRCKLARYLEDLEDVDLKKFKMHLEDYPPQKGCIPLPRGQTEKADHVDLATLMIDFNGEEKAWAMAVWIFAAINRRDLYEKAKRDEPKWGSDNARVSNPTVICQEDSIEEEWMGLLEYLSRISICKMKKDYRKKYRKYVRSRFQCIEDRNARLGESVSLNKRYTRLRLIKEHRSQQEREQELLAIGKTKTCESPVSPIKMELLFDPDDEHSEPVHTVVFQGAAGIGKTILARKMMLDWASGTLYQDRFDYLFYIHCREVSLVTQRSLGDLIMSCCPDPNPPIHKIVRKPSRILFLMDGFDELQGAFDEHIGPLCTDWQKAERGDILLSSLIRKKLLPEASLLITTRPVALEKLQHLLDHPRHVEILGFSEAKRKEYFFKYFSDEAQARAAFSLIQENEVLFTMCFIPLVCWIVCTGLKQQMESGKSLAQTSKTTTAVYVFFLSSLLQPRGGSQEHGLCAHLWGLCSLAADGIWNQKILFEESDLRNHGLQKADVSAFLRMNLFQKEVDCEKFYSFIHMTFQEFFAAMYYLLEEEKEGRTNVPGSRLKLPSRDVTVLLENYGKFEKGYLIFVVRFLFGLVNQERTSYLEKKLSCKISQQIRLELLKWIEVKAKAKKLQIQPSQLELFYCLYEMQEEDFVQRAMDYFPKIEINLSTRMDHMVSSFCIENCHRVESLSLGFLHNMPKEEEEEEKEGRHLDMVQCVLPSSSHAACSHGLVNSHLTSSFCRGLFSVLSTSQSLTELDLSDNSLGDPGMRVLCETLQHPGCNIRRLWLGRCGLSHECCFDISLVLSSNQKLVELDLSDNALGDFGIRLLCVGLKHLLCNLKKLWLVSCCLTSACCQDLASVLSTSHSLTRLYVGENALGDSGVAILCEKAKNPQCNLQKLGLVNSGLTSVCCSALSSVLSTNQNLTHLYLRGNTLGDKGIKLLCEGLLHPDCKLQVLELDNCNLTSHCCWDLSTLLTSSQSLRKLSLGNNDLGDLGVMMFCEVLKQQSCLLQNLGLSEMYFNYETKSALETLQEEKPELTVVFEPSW

Going from `Nc1cc(N[C@H]2CC[C@H](O)C2)c2sc(-c3ccn[nH]3)cc2n1` [Compound 26, (1S,3S)-3-((5-amino-2-(1H-pyrazol-5-yl)thieno[3,2-b]pyridin-7-yl)amino)cyclopentanol] to `Nc1cc(N[C@@H]2CC[C@@H](O)C2)c2sc(-c3ccn[nH]3)cc2n1` [Compound 30s, (1R,3R)-3-((5-amino-2-(1H-pyrazol-5-yl)thieno[3,2-b]pyridin-7-yl)amino)cyclopentanol hydrochloride], the EC50 falls from 0.1 µM to 0.02 µM (5-fold).

Going from `C[C@H](O)CNc1cc(N)nc2cc(-c3ccn[nH]3)sc12` [Compound 33] to `CO[C@H](C)CNc1cc(N)nc2cc(-c3ccn[nH]3)sc12` [Compound 101, (R)—N^7-(2-methoxypropyl)-2-(1H-pyrazol-5-yl)thieno[3,2-b]pyridine-5,7-diamine], the EC50 falls from 0.26 µM to 0.03 µM (8.7-fold). The second is the more potent here.

Going from `Nc1cc(NC2CC(O)C2)c2sc(-c3ccn[nH]3)cc2n1` (stereo not shown) [Compound 40, 3-((5-amino-2-(1H-pyrazol-5-yl)thieno[3,2-b]pyridin-7-yl)amino)cyclobutanol] to `Nc1cc(N[C@@H]2CCC[C@@H]2O)c2sc(-c3ccn[nH]3)cc2n1` [Compound 96, (1S,2R)-2-((5-amino-2-(1H-pyrazol-5-yl)thieno[3,2-b]pyridin-7-yl)amino)cyclopentanol], the EC50 falls from 0.39 µM to 0.07 µM (5.6-fold).

Going from `CN1CC[C@H](Nc2cc(N)nc3cc(-c4ccn[nH]4)sc23)C1` [Compound 51, (S)—N^7-(1-methylpyrrolidin-3-yl)-2-(1H-pyrazol-5-yl)thieno[3,2-b]pyridine-5,7-diamine] to `CN1CCC[C@@H](Nc2cc(N)nc3cc(-c4ccn[nH]4)sc23)C1` [Compound 104, (R)—N^7-(1-methylpiperidin-3-yl)-2-(1H-pyrazol-5-yl)thieno[3,2-b]pyridine-5,7-diamine], the EC50 falls from 0.33 µM to 0.17 µM (1.9-fold).

`CC(=O)NCCNc1cc(N)nc2cc(-c3ccn[nH]3)sc12` [Compound 52] and `CC(=O)NCCCNc1cc(N)nc2cc(-c3ccn[nH]3)sc12` [Compound 53] are within 1.5-fold of each other in EC50: 0.2 µM for the first, 0.18 µM for the second.

Compared with `CN1CCN(CCCNc2cc(N)nc3cc(-c4ccn[nH]4)sc23)CC1` [Compound 54, N^7-(3-(4-methylpiperazin-1-yl)propyl)-2-(1H-pyrazol-5-yl)thieno[3,2-b]pyridine-5,7-diamine], `CN1CCN(CCNc2cc(N)nc3cc(-c4ccn[nH]4)sc23)CC1` [Compound 57, N^7-(2-(4-methylpiperazin-1-yl)ethyl)-2-(1H-pyrazol-5-yl)thieno[3,2-b]pyridine-5,7-diamine] is 1.6-fold lower in EC50: 0.92 µM for the first, 0.57 µM for the second.

`Nc1cc(NCCN2CCOCC2)c2sc(-c3ccn[nH]3)cc2n1` [Compound 55, N^7-(2-morpholinoethyl)-2-(1H-pyrazol-5-yl)thieno[3,2-b]pyridine-5,7-diamine] and `CC1(O)CCN(CCNc2cc(N)nc3cc(-c4ccn[nH]4)sc23)CC1` [Compound 98, 1-(2-((5-amino-2-(1H-pyrazol-5-yl)thieno[3,2-b]pyridin-7-yl)amino)ethyl)-4-methylpiperidine-4-ol] are within 1.5-fold of each other in EC50: 0.44 µM for the first, 0.35 µM for the second.

Going from `Nc1cc(NCCCNC(=O)C2CC2)c2sc(-c3ccn[nH]3)cc2n1` [Compound 58] to `Nc1cc(NCCNC(=O)C2CC2)c2sc(-c3ccn[nH]3)cc2n1` [Compound 64], the EC50 falls from 0.26 µM to 0.05 µM (5.2-fold). The second is the more potent here.

First: Nc1cc(NCc2ccccn2)c2sc(-c3ccn[nH]3)cc2n1 [Compound 59, 2-(1H-pyrazol-5-yl)-N^7-(pyridin-2-ylmethyl)thieno[3,2-b]pyridine-5,7-diamine]
Second: Nc1cc(NCC(F)(F)c2ccccn2)c2sc(-c3ccn[nH]3)cc2n1 [Compound 97, N^7-(2,2-difluoro-2-(pyridin-2-yl)ethyl)-2-(1H-pyrazol-5-yl)thieno[3,2-b]pyridine-5,7-diamine]
The EC50 of the first is 3.3-fold higher: 0.1 µM for the first, 0.03 µM for the second.

`Cn1ccc(CNc2cc(N)nc3cc(-c4ccn[nH]4)sc23)n1` [Compound 60, N^7-(1-methyl-1H-pyrazol-3-yl)methyl-2-(1H-pyrazol-5-yl)thieno[3,2-b]pyridine-5,7-diamine] and `Cn1cnc(CNc2cc(N)nc3cc(-c4ccn[nH]4)sc23)c1` [Compound 63, N^7-(1-methyl-1H-imidazol-4-yl)methyl-2-(1H-pyrazol-5-yl)thieno[3,2-b]pyridine-5,7-diamine] are within 1.5-fold of each other in EC50: 0.1 µM for the first, 0.07 µM for the second.

Compared with `Nc1cc(NC2CCOC2)c2sc(-c3ccn[nH]3)cc2n1` (stereo not shown) [Compound 61, 2-(1H-pyrazol-5-yl)-N^7-(tetrahydrofuran-3-yl)thieno[3,2-b]pyridine-5,7-diamine], `Nc1cc(NC2CCCC2)c2sc(-c3ccn[nH]3)cc2n1` [Compound 110, N^7-cyclopentyl-2-(1H-pyrazol-5-yl)thieno[3,2-b]pyridine-5,7-diamine] is 5-fold lower in EC50: 0.1 µM for the first, 0.02 µM for the second. The second is the more potent here.

Compared with `CC1CN(CCNc2cc(N)nc3cc(-c4ccn[nH]4)sc23)CC(C)O1` (stereo not shown) [Compound 62], `Nc1cc(NCC2CC2)c2sc(-c3ccn[nH]3)cc2n1` [Compound 102, N^7-(cyclopropylmethyl)-2-(1H-pyrazol-5-yl)thieno[3,2-b]pyridine-5,7-diamine] is 6-fold lower in EC50: 0.06 µM for the first, 0.01 µM for the second. The second is the more potent here.

`CC(=O)N(C)CCNc1cc(N)nc2cc(-c3ccn[nH]3)sc12` [Compound 73, N-(2-((5-amino-2-(1H-pyrazol-5-yl)thieno[3,2-b]pyridin-7-yl)amino)ethyl)-N-methylethanamide] and `CC(=O)N(C)CCCNc1cc(N)nc2cc(-c3ccn[nH]3)sc12` [Compound 74, N-(3-((5-amino-2-(1H-pyrazol-5-yl)thieno[3,2-b]pyridin-7-yl)amino)propyl)-N-methylacetamide] are within 1.5-fold of each other in EC50: 0.18 µM for the first, 0.26 µM for the second.

Going from `CN(CCNc1cc(N)nc2cc(-c3ccn[nH]3)sc12)C(=O)C1CC1` [Compound 75, N-(2-((5-amino-2-(1H-pyrazol-5-yl)thieno[3,2-b]pyridin-7-yl)amino)ethyl)-N-methylcyclopropionamide] to `CN(CCCNc1cc(N)nc2cc(-c3ccn[nH]3)sc12)C(=O)C1CC1` [Compound 76, N-(3-((5-amino-2-(1H-pyrazol-5-yl)thieno[3,2-b]pyridin-7-yl)amino)propyl)-N-methylcyclopropane formamide], the EC50 rises from 0.11 µM to 0.27 µM (2.5-fold). The first is the more potent here.

Compared with `CCC(=O)N(C)CCNc1cc(N)nc2cc(-c3ccn[nH]3)sc12` [Compound 88, N-(2-((5-amino-2-(1H-pyrazol-5-yl)thieno[3,2-b]pyridin-7-yl)amino)ethyl)-N-methylpropionamide], `CC[C@H](CO)Nc1cc(N)nc2cc(-c3ccn[nH]3)sc12` [Compound 95, (R)-2-((5-amino-2-(1H-pyrazol-5-yl)thieno[3,2-b]pyridin-7-yl)amino)butanol] is 2.2-fold higher in EC50: 0.04 µM for the first, 0.09 µM for the second. The first is the more potent here.

Going from `CN1CCC(Nc2cc(N)nc3cc(-c4ccn[nH]4)sc23)CC1` [Compound 89, N^7-(1-methylpiperidin-4-yl)-2-(1H-pyrazol-5-yl)thieno[3,2-b]pyridine-5,7-diamine] to `CC(=O)N1CCC(Nc2cc(N)nc3cc(-c4ccn[nH]4)sc23)CC1` [Compound 92, 1-(4-((5-amino-2-(1H-pyrazol-5-yl)thieno[3,2-b]pyridin-7-yl)amino)piperidin-1-yl)ethanone], the EC50 rises from 0.16 µM to 1.12 µM (7-fold). The first is the more potent here.

Going from `Nc1cc(NCCCO)c2sc(-c3ccncc3)cc2n1` [Compound 90, 3-((5-amino-2-(pyridin-4-yl)thieno[3,2-b]pyridin-7-yl)amino)-1-propanol] to `Nc1cc(NCCCO)c2sc(-c3ccccc3)cc2n1` [Compound 93, 3-((5-amino-2-phenylthieno[3,2-b]pyridin-7-yl)amino)-1-propanol], the EC50 falls from 6.03 µM to 0.18 µM (34-fold). The second is the more potent here.

First: Cc1cccc(-c2cc3nc(N)cc(NCCCO)c3s2)n1 [Compound 91, 3-((5-amino-2-(6-methylpyridin-2-yl)thieno[3,2-b]pyridin-7-yl)amino)-1-propanol]
Second: Cn1cc(-c2cc3nc(N)cc(NCCCO)c3s2)cn1 [Compound 109, 3-((5-amino-2-(1-methyl-1H-pyrazol-4-yl)thieno[3,2-b]pyridin-7-yl)amino)-1-propanol]
The EC50 of the first is 41-fold lower: 0.11 µM for the first, 4.48 µM for the second.

Compared with `CC1(O)CCN(CCCNc2cc(N)nc3cc(-c4ccn[nH]4)sc23)CC1` [Compound 99, 1-(3-((5-amino-2-(1H-pyrazol-5-yl)thieno[3,2-b]pyridin-7-yl)amino)propyl)-4-methylpiperidine-4-ol], `Cn1cc(CNc2cc(N)nc3cc(-c4ccn[nH]4)sc23)cn1` [Compound 106, N^7-(1-methyl-1H-pyrazol-4-yl)methyl-2-(1H-pyrazol-5-yl)thieno[3,2-b]pyridine-5,7-diamine] is 14-fold lower in EC50: 0.54 µM for the first, 0.04 µM for the second.

Going from `Nc1cc(NC[C@@H]2CCCO2)c2sc(-c3ccn[nH]3)cc2n1` [Compound 105, (S)-2-(1H-pyrazol-5-yl)-N^7-((tetrahydrofuran-2-yl)methyl)thieno[3,2-b]pyridine-5,7-diamine] to `C[C@@H](CO)Nc1cc(N)nc2cc(-c3ccn[nH]3)sc12` [Compound 108, (S)-2-((5-amino-2-(1H-pyrazol-5-yl)thieno[3,2-b]pyridin-7-yl)amino)propanol], the EC50 rises from 0.03 µM to 0.34 µM (11-fold).
